From PubChem BioAssay (NCI)
Values joined by “and” are separate entries in the source; they are usually repeats but may differ in a detail not shown here. Identical values can stand only once.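 Following 48 hours of exposure in 96-well plates, responses at five concentrations were used to interpolate endpoints linearly. GI50 = concentration required for 50% inhibition of growth. TGI is the concentration that stops growth completely.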

How the values were obtained:
Assay in all cases: growth of human tumour cells (NCI), 48 h
HCT-15 colon = tested on: HCT-15 colon
IGROV1 ovarian = tested on: IGROV1 ovarian
MDA-MB-435 = tested on: MDA-MB-435
COLO 205 colon = tested on: COLO 205 colon
SF-295 CNS = tested on: SF-295 CNS
MOLT-4 leukemia = tested on: MOLT-4 leukemia
DU-145 prostate = tested on: DU-145 prostate
A549 NSCLC = tested on: A549 NSCLC
SN12C renal = tested on: SN12C renal
MCF7 breast = tested on: MCF7 breast

Compound	GI50 (HCT-15 colon)	TGI (HCT-15 colon)	GI50 (IGROV1 ovarian) [µM]	TGI (IGROV1 ovarian)	GI50 (MDA-MB-435)	TGI (MDA-MB-435)	GI50 (COLO 205 colon)	TGI (COLO 205 colon)	GI50 (SF-295 CNS)	TGI (SF-295 CNS)	GI50 (MOLT-4 leukemia)	TGI (MOLT-4 leukemia)	GI50 (DU-145 prostate)	TGI (DU-145 prostate)	GI50 (A549 NSCLC)	TGI (A549 NSCLC)	GI50 (SN12C renal)	TGI (SN12C renal)	GI50 (MCF7 breast) [µM]	TGI (MCF7 breast)
Cc1[nH]c(-c2nc3ccccc3[nH]2)c(C)c1C(=O)NC(C)C1CCCCC1 (configuration not stated)	4.77 µM	19.6 µM	6.16	23.9 µM	2.29 µM	5.85 µM	18.3 µM	58 µM	4.8 µM	16.8 µM	4.95 µM	28.1 µM	14.6 µM	28.2 µM	12.2 µM	34 µM	10.5 µM	26 µM	4.01	19.2 µM
Cc1cc2nc3cc(C)c(N)cc3[n+](-c3ccccc3)c2cc1N	> 100 µM	> 100 µM	12.4	> 100 µM	4.68 µM	67 µM	2.55 µM	14.3 µM	2.94 µM	> 73.8 µM	6.5 µM	> 100 µM	7.89 µM	> 100 µM	14.6 µM	> 100 µM	1.59 µM	> 23 µM	2.48	> 100 µM
NC(N)=Nc1nc2ccc([N+](=O)[O-])cc2[nH]1		> 100 µM		> 100 µM		> 100 µM		> 100 µM		> 100 µM		> 100 µM		> 100 µM		> 100 µM		> 100 µM		> 100 µM
COC1C(OC(=O)/C=C/C=C/C=C/C=C\C(=O)O)CCC2(CO2)C1C1(C)OC1CC=C(C)C (configuration not stated)	> 200 µM	> 200 µM	> 200	> 200 µM	> 200 µM	> 200 µM	> 200 µM	> 200 µM	> 200 µM	> 200 µM	> 200 µM	> 200 µM	> 200 µM	> 200 µM			> 200 µM	> 200 µM	> 200	> 200 µM
COC(=O)/C=C1/SC(N2N=C(c3cccs3)CC2c2ccc(F)cc2)=NC1=O (configuration not stated)	1.95 µM	4.44 µM	2.4	7.06 µM	2.13 µM	4.8 µM	2.15 µM	4.27 µM	3.24 µM	13.5 µM	2.65 µM	7.25 µM	2.12 µM	4.75 µM	4.1 µM	20.6 µM	3.29 µM	11 µM	2.34	8.06 µM
CCCNC(=O)c1ccc(Cl)cc1Cl	> 100 µM	> 100 µM	> 100	> 100 µM	> 100 µM	> 100 µM	> 100 µM	> 100 µM	> 100 µM	> 100 µM	> 100 µM	> 100 µM	> 100 µM	> 100 µM	> 100 µM	> 100 µM	> 100 µM	> 100 µM	> 100	> 100 µM
COCCN1CCN(Cc2ccc(-c3n[nH]c4c3C(=O)c3c(NC(=O)NN5CCOCC5)cccc3-4)cc2)CC1	0.117 µM	2 µM	0.0226	1.19 µM	0.0227 µM	0.424 µM	0.0151 µM	0.0474 µM	0.0345 µM	> 10 µM	0.0212 µM	0.228 µM	0.0267 µM		0.0289 µM	0.214 µM	0.0307 µM	> 10 µM	0.00766	> 5.52 µM
CC(C)n1nc(-c2ccc3oc(N)nc3c2)c2c(N)ncnc21	0.0126 µM and 0.0164 µM	11.3 µM and > 35.2 µM	< 0.01	0.0554 µM and 0.277 µM	< 0.0125 µM and 0.0138 µM	0.403 µM and 0.11 µM	< 0.01 µM and 0.0144 µM	2.21 µM and 1.88 µM	< 0.01 µM and 0.0102 µM	0.0472 µM and 0.0773 µM	0.0325 µM and 0.0438 µM	5.9 µM and 9.49 µM	0.0203 µM and 0.0208 µM	11.9 µM and 6.63 µM	0.0156 µM and 0.0191 µM	2.88 µM and 1.03 µM	< 0.0114 µM and 0.0113 µM	2.69 µM and 8.69 µM	< 0.01	2.87 µM and 4.12 µM
COc1cc(-c2cc(/C=C/C(=O)c3ccc(Cl)c(Cl)c3)[nH]n2)cc(OC)c1OC	4.29 µM		24	> 100 µM	5.65 µM	> 100 µM	1.26 µM	15.8 µM			4.38 µM	40.6 µM			18.7 µM	> 100 µM	13.7 µM	> 100 µM	1.8	> 100 µM
COc1ccc2c(Cl)cc(NC(=O)Nc3c(C)cccc3C)nc2c1	27.3 µM	> 100 µM	21.9	> 100 µM	13.4 µM	40.5 µM	46 µM	> 100 µM	4.31 µM	43.9 µM	45.9 µM	> 100 µM	28.4 µM	> 100 µM	6.1 µM	69.4 µM	15.6 µM	> 100 µM	56	> 100 µM
Cc1ccc(C2=Nc3c(N)ncnc3NC(c3ccc4c(c3)OCO4)C2)cc1 (configuration not stated)	3.14 µM	13.7 µM	3.34	26.2 µM	1.15 µM	4.12 µM	3.47 µM	21.7 µM	3.45 µM	21.7 µM	2.66 µM	> 100 µM	4.52 µM	14.7 µM	7.09 µM	52.9 µM	8.61 µM	> 100 µM	3.42	> 100 µM
NCCOc1ccccc1/C=C1\c2ccccc2-c2ccc([N+](=O)[O-])cc21	1.2 µM	2.53 µM	1.35	2.68 µM	1.68 µM	3.09 µM	1.75 µM	3.44 µM	1.7 µM	3.18 µM			1.03 µM	2.21 µM			1.41 µM	2.82 µM	0.805	2.25 µM
CCCCN(CCCC)CCC(O)c1cc2c(Cl)cc(Cl)cc2c2cc(C(F)(F)F)ccc12 (configuration not stated)		19.1 µM		26.5 µM		28.7 µM		23.6 µM		25.4 µM		29.3 µM		22 µM				20 µM		24.9 µM
